Series [1] has as its system muscle and spinal transcriptomes of SOD1 mice. Put plainly: Muscle and spinal transcriptomes of SOD1 mice after CBE treatment (GO biological functions of restored genes). It counts as in vivo. As to conditions: spinal cord and muscle.
Series [2] deals with non-transgenic mice. Put plainly: Sciatic nerve injury (crush) in non-transgenic mice: functional recovery and re-innervation. It counts as in vivo. The procedure: Sciatic Nerve Injury: Peripheral nerve injury was performed in order to induce muscle denervation and axonal regeneration. Non-transgenic mice were anesthetized with ketamine chlorohydrate (100 mg/kg) and xylazine (5 mg/kg). The sciatic nerve was exposed at mid-thigh level and crushed with fine forceps for 30 s. The skin incision was sutured, and mice were allowed to recover. The hind limb, contralateral to the lesion, served as control. Mice were treated with CBE (10 mg/kg/d) for 12 days, or with ambroxol (120-150 mg/kg/day) for 10 days, starting the day before surgery. Mice were followed on a daily basis. Body mass, muscle strength of individual hind limbs (mean of three tests was recorded), and locomotor profile (catwalk, Noldus) were analyzed.
Here, we sought to determine the effect of CBE on the motor recovery after nerve injury in non-transgenic mice. CBE was administrated on a daily basis (10 mg/kg/day), from […] until the end of the study, 12 days after injury.

The subject of series [3] is GCase. As to the kind of experiment: Total GCase activity in the spinal cord after CBE treatment. It counts as in vivo, mice. The conditions noted are these: CBE 10 mg/kg/day, intraperitoneal.
In series [4] the test system is SOD1 mice. As to the kind of experiment: SOD1(G86R) mice, animal model of ALS: disease onset, motor function, motor unit histology, survival. It is filed as in vivo. The method, then:
Ambroxol was given orally in the drinking water. […] Non-transgenic littermates served as controls. […] Average speed, paw swing and stride length were measured. […] Non-transgenic littermates served as controls.
Spinal cord: Lumbar spinal cord fixed in paraformaldehyde 4% were used for studying the distribution of GM1a around motor neurons. Coronal section 40 μm thick were realized with a vibratome and were stained with an anti-[…] (1/100, Millipore, France) and an alexa594 conjugated goat (1/200, Jackson) antibodies. GM1a was detected with the cholera toxin sub-unit beta coupled with an Allexa488 dye (1/200, ThermoFisher). Fluorescence intensity of GM1a was calculated with an image processing program (ImageJ). For motor neuron couting, all neurons located in the ventral horn, that were >400 μm^2 in size and ChAT positive were considered as alpha motor neurons. Six sections of spinal cord that were apart over a length of 0.24 mm were counted.
Muscle bundles: Tibialis anterior muscles fixed in paraformaldehyde 4% were dissected into bundles under a binocular microscope. Bundles were collected from at least three different parts of the muscle. Acetylcholine receptors in the postsynaptic apparatus of neuromuscular junctions were labeled with rhodamine-conjugated α-bungarotoxin (Sigma-Aldrich). Immunofluorescent labeling of nerve terminals was performed with a rabbit polyclonal anti-synaptophysin antibody diluted 1/200 (Abcam, Cambridge, UK), and Alexa conjugated goat anti-rabbit diluted 1/500 (Jackson). Neuromuscular junction integrity was assessed by studying the colocalization of synaptophysin and bungarotoxin signal. […].
Coronal muscle sections: Twenty-micrometer sections were obtained by cutting isopentane fresh-frozen tibialis anterior muscles perpendicular to the muscle axis with a cryostat at −20° C. (Leica, Nanterre, France). Acetylcholine receptors in the postsynaptic apparatus of neuromuscular junctions were labeled with rhodamine-conjugated α-bungarotoxin (Sigma-Aldrich). GM1a distribution was labeled with the cholera toxin sub-unit beta coupled with an Allexa488 dye (1/200, ThermoFisher).

Series [5] concerns non-transgenic mice. As to conditions: mouse, in vivo.
In series [6] the test system is co-culture of spinal explants and myoblasts. Put plainly: Co-culture of spinal explants and myoblasts: neurite network / area of innervation. It is filed as cell-based. As to conditions: ambroxol 100 μM in culture medium. The method, then: We next sought to determine whether another inhibitor of GlcCer degradation could support axonal plasticity and improve the phenotype of SOD1 mice. We used ambroxol, which is an inhibitor of GBA2 activity (Narita, A. et al. Ambroxol chaperone therapy for neuronopathic Gaucher disease: A pilot study. Ann. Clin. Transl. Neurol. 3, 200-215 (2016)). First, ambroxol (100 μM) was added to the culture medium of a co-culture of spinal explants and myoblasts. […] Next, ambroxol was given per os to SOD1 mice (120-150 mg/kg/day) from day 75 to day 95. […] In a second cohort of mice, the treatment was initiated at disease onset to study ambroxol's effect on late disease stage and survival. […] Next, ambroxol was given to mice subjected to sciatic nerve injury in order to determine its effects on peripheral nerve regeneration.

Where [7] appears, read: CBE 10 mg/kg/day, 12 days after injury.
[8] abbreviates: CBE 10 mg/kg/day, until 12 days after injury, vs placebo.
[9] abbreviates: ambroxol 120-150 mg/kg/day for 10 days.
Setting [10] is: ambroxol, second cohort, treatment initiated at disease onset.

Molecules are shown by their SMILES.

The results in this text go back to patent publication US12083091B2, “Inhibitors of glucosylceramide degradation in the treatment of diseases of the motor units” (priority 2016, dated 2024).

`OC1C(O)C(O)C2OC2C1O` (centres unmarked) [CBE, 1,2-anhydro-myo-inositol]: the “global transcriptomic deregulations in SOD1 mice” value in series [1] is reported as “partially corrected”. Moreover, in series [2] (setting [7]), the “locomotor profile of the injured paw (contact area, hindlimb step cycle)” value is reported as “closer to the contralateral side” and the “muscle fibrillation at sacrifice” value is reported as “less muscle fibrillation”. Moreover, in series [2] (setting [8]), the “muscle strength recovery after sciatic nerve injury” value is on record as “occurred faster, by several days” and the “time to toe spreading after sciatic nerve injury” value is “occurred faster, by several days”. Moreover, in series [3], the “GCase activity in the spinal cord” value is “decrease”. Moreover, the “fibrillation events (electromyogram), sign of muscle denervation, vs SOD1 placebo group” value in series [4] (CBE 10 mg/kg/day i.p., 95 days of age) was “less frequently detected”. Also, the “number of fully innervated NMJs” value in series [4] (CBE 10 mg/kg/day i.p., 95 days of age, tibialis anterior) was “comparable to wild type and significantly higher to SOD1 mice receiving the placebo”. Moreover, the “loss of large motor neurons in lumbar spinal cord compared to wild type” value in series [4] (CBE 10 mg/kg/day i.p., 95 days of age, placebo SOD1 almost 60% loss) came out at 30%. For the same compound, the “presence of axonal GM1a at presynaptic axons of NMJs” value in series [4] (CBE 10 mg/kg/day i.p., SOD1 mice) is “clearly detectable”. The “development of locomotor impairments (average speed, stride length, paw swing; catwalk)” value in series [4] (CBE 10 mg/kg/day i.p., SOD1 mice at 95 days of age) is “completely prevented”. The “delay of disease onset (onset of muscle strength loss) compared to the placebo group” value in series [4] (CBE 10 mg/kg/day i.p., from 75 to 95 days of age) is reported as 6 days. In addition, the “astrocyte activation (GFAP staining fluorescence intensity)” value in series [4] (CBE 10 mg/kg/day i.p., spinal cord ventral horn) is recorded as “no influence”. In series [5], the “loss of motor function in non-transgenic mice” value is recorded as “without inducing loss of motor function”; the “side effects (body mass and muscle strength evolution upon treatment)” value was “does not induce side effects”.

Turning to `Nc1c(Br)cc(Br)cc1CN[C@H]1CC[C@H](O)CC1` [ambroxol, trans-4-(2-Amino-3,5-dibrombenzylamino)-cyclohexanol], the “neurite network (total area of innervation) of co-culture” value in series [6] was “improved”. Besides, in series [2] (setting [9]), the “muscle strength of ipsilateral hind paws after sciatic nerve injury” value is “significantly improved” and the “peripheral nerve regeneration after injury” value is given as “significantly improves”. Besides, the correct muscle re-innervation entry in series [2] (ambroxol 120-150 mg/kg/day, ten days after injury) was “significantly improves”. For the same compound, the “innervation status (NMJ integrity)” value in series [4] (ambroxol 120-150 mg/kg/day per os, day 75 to 95, at 95 days of age) is given as “improved”. Further, in series [4] (ambroxol 120-150 mg/kg/day per os, day 75 to day 95), the “delay of first loss of muscle strength (disease onset) compared to placebo” value was around 10 days. Also, in series [4] (setting [10]), the “improvement of total survival” value is “more than 8 days” and the muscle strength result is “significantly improved”.
